Patent US7138361B2, “Herbicidal heterocycles” (E. I. du Pont de Nemours and Company, priority 2000, dated 2006)

Key:
Type in all cases: in vivo
[1] = tested on: yellow nutsedge (Cyperus esculentus); assay: Test C preemergence
Summary of the method: (§1)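 Test chemicals, formulated in a non-phytotoxic solvent mixture with surfactant, were applied preemergence to planted seeds or postemergence to plants 2 to 18 cm tall (1- to 4-leaf stage). After 12 to 14 days in a greenhouse, injury was visually rated against untreated controls on a 0–100 scale.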

[2] = tested on: cocklebur (Xanthium strumarium); assay: Test C preemergence
Summary of the method: as §1

[3] = tested on: lambsquarters (Chenopodium album); assay: Test C preemergence
Summary of the method: as §1

Sunflower [4] = assay: Test C preemergence
corn (Zea mays) = assay: Test C preemergence
Summary of the method: as §1

[5] = tested on: common ragweed (Ambrosia elatior); assay: Test C preemergence
Summary of the method: as §1

[6] = tested on: johnsongrass (Sorghum halepense); assay: Test C preemergence
Summary of the method: as §1

[7] = tested on: goosegrass (Eleusine indica); assay: Test C preemergence
Summary of the method: as §1

[8] = tested on: bermudagrass (Cynodon dactylon); assay: Test C preemergence
Summary of the method: as §1

soybean (Glycine max) = assay: Test C preemergence
Summary of the method: as §1

[9] = tested on: crabgrass (Digitaria sanguinalis); assay: Test C preemergence
Summary of the method: as §1

[10] = tested on: Surinam grass (Brachiaria decumbens); assay: Test C preemergence
Summary of the method: as §1

[11] = tested on: morningglory (Ipomoea hederacea); assay: Test C preemergence
Summary of the method: as §1

kochia (Kochia scoparia) = assay: Test C preemergence
Summary of the method: as §1

Nightshade = assay: Test C preemergence
[12] = tested on: giant foxtail (Setaria faberii); assay: Test C preemergence
Summary of the method: as §1

[13] = tested on: velvetleaf (Abutilon theophrasti); assay: Test C preemergence
Summary of the method: as §1

[14] = tested on: pigweed (Amaranthus retroflexus); assay: Test C preemergence
Summary of the method: as §1

[15] = tested on: woolly cupgrass (Eriochloa villosa); assay: Test C preemergence
Summary of the method: as §1

rice (Oryza saliva) = assay: Test C flooded paddy test; conditions: for Rice plant response rating: Flooded Paddy, scale 0 to 100, 0 no effect, 100 complete control; for Plant response rating, Rice: flooded paddy test, scale 0 to 100 (0 no effect, 100 complete control)
Summary of the method: (§2)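 Each species was cultivated to 2 leaves in flooded paddy pots, then treated. After a greenhouse period of 12–14 days, the plants were scored visually relative to controls from 0 (no effect) to 100 (complete control).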

[16] = tested on: barnyardgrass (Echinochloa crus-galli); assay: Test C flooded paddy test; conditions: for Barnyardgrass plant response rating: Flooded Paddy, scale 0 to 100, 0 no effect, 100 complete control; for Plant response rating, Barnyardgrass: flooded paddy test, scale 0 to 100 (0 no effect, 100 complete control)
Summary of the method: as §2

Sunflower [17] = assay: Test C preemergence; conditions: Rate 250 g/ha, visual evaluation after 12 to 14 days
[18] = Preemergence, Rate 500 g/ha, scale 0 to 100
[19] = preemergence, Rate 250 g/ha, visual evaluation after 12 to 14 days
[20] = preemergence, Rate 125 g/ha, scale 0 to 100, 0 no effect, 100 complete control
[21] = Rate 62 g/ha, scale 0 to 100, 0 no effect, 100 complete control

SMILES: O=C1C(n2ccc(C3CCC3)n2)SCN1c1cccc(OC(F)F)c1 (centres unmarked) [Compound 45]
- Plant response rating, Nutsedge [1, 18]: 100
- Plant response rating (0 to 100), Nutsedge [1, 19]: 60
- Plant response rating, Nutsedge [1, 20]: 0
- Plant response rating, Cocklebur [2, 18]: 90
- Plant response rating (0 to 100), Cocklebur [2, 19]: 20
- Plant response rating, Cocklebur [2, 20]: 0
- Plant response rating, Lambsquarters [3, 18]: 100
- Plant response rating, Lambsquarters [3, 21]: 60
- Plant response rating (0 to 100), Lambsquarters [3, 19]: 100
- Plant response rating, Lambsquarters [3, 20]: 100
- Plant response rating, Sunflower (Sunflower [4]; [21]): 20
- Plant response rating, Sunflower (Sunflower [4]; Rate 500 g/ha, scale 0 to 100): 70
- Plant response rating, Corn (corn (Zea mays); [18]): 0
- Plant response rating, Corn (corn (Zea mays); [21]): 0
- Plant response rating (0 to 100), Corn (corn (Zea mays); [19]): 0
- Plant response rating, Corn (corn (Zea mays); [20]): 0
- Plant response rating, Ragweed, Common [5, 18]: 60
- Plant response rating, Ragweed, Common [5, 21]: 0
- Plant response rating (0 to 100), Ragweed, Common [5, 19]: 30
- Plant response rating, Ragweed, Common [5, 20]: 0
- Plant response rating, Johnsongrass [6, 18]: 100
- Plant response rating, Johnsongrass [6, 21]: 0
- Plant response rating (0 to 100), Johnsongrass [6, 19]: 50
- Plant response rating, Johnsongrass [6, 20]: 0
- Plant response rating, Goosegrass [7, 18]: 100
- Plant response rating, Goosegrass [7, 21]: 90
- Plant response rating (0 to 100), Goosegrass [7, 19]: 100
- Plant response rating, Goosegrass [7, 20]: 100
- Plant response rating, Bermudagrass [8, 18]: 100
- Plant response rating, Bermudagrass [8, 21]: 50
- Plant response rating (0 to 100 where 0 is no effect and 100 is complete control), Bermudagrass [8, 19]: 100
- Plant response rating, Bermudagrass [8, 20]: 90
- Plant response rating, Soybean (soybean (Glycine max); [18]): 0
- Plant response rating, Soybean (soybean (Glycine max); [21]): 0
- Plant response rating (0 to 100), Soybean (soybean (Glycine max); [19]): 0
- Plant response rating, Soybean (soybean (Glycine max); [20]): 0
- Plant response rating, Crabgrass [9, 18]: 100
- Plant response rating, Crabgrass [9, 21]: 90
- Plant response rating (0 to 100), Crabgrass [9, 19]: 100
- Plant response rating, Crabgrass [9, 20]: 100
- Plant response rating, Surinam grass [10, 18]: 70
- Plant response rating, Surinam grass [10, 21]: 0
- Plant response rating (0 to 100), Surinam grass [10, 19]: 40
- Plant response rating, Surinam grass [10, 20]: 0
- Plant response rating, Morningglory [11, 18]: 0
- Plant response rating, Morningglory [11, 21]: 0
- Plant response rating (0 to 100), Morningglory [11, 19]: 0
- Plant response rating, Morningglory [11, 20]: 0
- Plant response rating, Kochia (kochia (Kochia scoparia); [18]): 100
- Plant response rating, Kochia (kochia (Kochia scoparia); [21]): 20
- Plant response rating (0 to 100), Kochia (kochia (Kochia scoparia); [19]): 90
- Plant response rating, Kochia (kochia (Kochia scoparia); [20]): 60
- Plant response rating, Nightshade (Nightshade; [21]): 0
- Plant response rating, Nightshade (Nightshade; Rate 125 g/ha, scale 0 to 100, 0 no effect, 100 complete control): 0
- Plant response rating, Nightshade (Nightshade; Rate 500 g/ha, scale 0 to 100): 40
- Plant response rating, Foxtail, Giant [12, 18]: 90
- Plant response rating, Foxtail, Giant [12, 21]: 30
- Plant response rating (0 to 100), Foxtail, Giant [12, 19]: 40
- Plant response rating, Foxtail, Giant [12, 20]: 40
- Plant response rating, Velvetleaf [13, 18]: 30
- Plant response rating, Velvetleaf [13, 21]: 0
- Plant response rating (0 to 100), Velvetleaf [13, 19]: 20
- Plant response rating, Velvetleaf [13, 20]: 0
- Plant response rating, Pigweed [14, 18]: 30
- Plant response rating, Pigweed [14, 21]: 0
- Plant response rating (0 to 100), Pigweed [14, 19]: 0
- Plant response rating, Pigweed [14, 20]: 0
- Plant response rating, Cupgrass, Woolly [15, 18]: 100
- Plant response rating, Cupgrass, Woolly [15, 21]: 0
- Plant response rating (0 to 100), Cupgrass, Woolly [15, 19]: 70
- Plant response rating, Cupgrass, Woolly [15, 20]: 30
- Rice plant response rating (rice (Oryza saliva); Rate 250 g/ha): 70
- Rice plant response rating (rice (Oryza saliva); Rate 500 g/ha): 100
- Plant response rating, Rice (rice (Oryza saliva); Rate 62 g/ha): 0
- Plant response rating, Rice (rice (Oryza saliva); Rate 125 g/ha): 50
- Barnyardgrass plant response rating ([16]; Rate 250 g/ha): 100
- Barnyardgrass plant response rating ([16]; Rate 500 g/ha): 100
- Plant response rating, Barnyardgrass ([16]; Rate 62 g/ha): 70
- Plant response rating, Barnyardgrass ([16]; Rate 125 g/ha): 100
- Plant response rating (0 to 100), Sunflower (Sunflower [17]): 20
